Source: US20070254863A1 (priority 2006, published 2007)
Read-outs that look alike come from different tables or passages of the source.

Experiments:
hamster SUR1 = biological target: T1, hamster SUR1 (Cricetus cricetus, UniProt Q09427); test: In vitro binding affinity to rodent KATP channels: SUR1 ([3H]glibenclamide displacement, COS cell membranes); conditions: hamster SUR1 in COS cell membranes; for Ki: read-out: Affinity to SUR 1 (converted)
T1 construct: expressed in transfected cells; host or cells: COS-1 cells, transient (pcDNA vector)
Experimental: 1. In Vitro Binding Affinity of the Test Compounds to Rodent KATP Channels
Competitive binding experiments were performed to characterize the affinity of the test compounds for the binding sites for sulfonylureas and KATP channel openers (KCOS) on hamster SUR1. To assess the affinity for the sulfonylurea site, membranes from COS-cells transiently expressing hamster SUR1 were incubated in the presence of [^3H]glibenclamide with increasing concentrations of test compounds. […] For each test compound four displacement curves were measured (+/−MgATP from the human and hamster isoform). Per curve 9-15 distinct concentrations were tested covering the relevant range. All measurements were repeated at least 5 times in independent experiments.
(§1) [^3H]glibenclamide (specific activity 51 Ci mmol^−1) was obtained from NEN (Dreieich, Germany). Where needed, stock solutions were prepared in dimethylsulfoxide with a final solvent concentration in the media below 1%.
(§2) SUR- or Kir6.x isoforms were used either subcloned in the pcDNA (hamster SUR1, mouse Kir6.2) or pCMV vector (rat SUR2A, SUR2B).
(§3) For transfection, the cells were incubated 4 hours in a Tris-buffered salt solution containing DNA (5-10 μg/ml) plus DEAE-dextran (1 mg/ml), 2 min in HEPES-buffered salt solution plus dimethylsulfoxide (10%) and 4 hours in DMEM-HG plus chloroquine (100 μM). Cells were then returned to DMEM-HG plus 10% FCS. […] For binding experiments, resuspended membranes (final protein concentration 5-50 μg/ml) were incubated in “Tris-buffer” (50 mM, pH 7.4) containing either [^3H]glibenclamide (final concentration 0.3 nM or 3 nM and nonspecific binding defined by 100 nM or 1 μM glibenclamide for SUR1 or SUR2Y1205S-isoforms, respectively) or [^3H]P1075 (final concentration 3 nM, nonspecific binding defined by 100 μM pinacidil) and increasing concentrations of the test compounds. The free Mg^2+ concentration were kept close to 0.7 mM. […] Incubations were carried out for 1 h at room temperature and were terminated by rapid filtration through Whatman GF/B filters.
(§4) The inhibition constant (Ki value) of the test substances was calculated from the respective IC50 value, and was stated as the negative logarithmic value thereof (pKi).

rat SUR2A = rat SUR2A (Rattus norvegicus, UniProt Q63563); test: In vitro binding affinity to rodent KATP channels: SUR2A ([3H]P1075 / [3H]glibenclamide displacement, COS cell membranes)
Experimental: Therefore, two strategies can be used to detect binding to the sulfonylurea site on SUR2A.
Membranes from COS-cells transiently expressing rat SUR2A were incubated in the presence of the radioligands with increasing concentrations of test compounds as described above. […] For each test compound four displacement curves were measured (displacement of [^3H]P1075 from the rat isoform of the wild type receptor and displacement of [^3H]glibenclamide from the rat isoform of SUR2AY1205S). Per curve 9-15 distinct concentrations were tested covering the relevant range. All measurements were repeated at least 5 times in independent experiments.
as §1, §2, §3, §4

[1] = rat SUR2A in COS cell membranes

T1 sequence (Q09427 whole entry): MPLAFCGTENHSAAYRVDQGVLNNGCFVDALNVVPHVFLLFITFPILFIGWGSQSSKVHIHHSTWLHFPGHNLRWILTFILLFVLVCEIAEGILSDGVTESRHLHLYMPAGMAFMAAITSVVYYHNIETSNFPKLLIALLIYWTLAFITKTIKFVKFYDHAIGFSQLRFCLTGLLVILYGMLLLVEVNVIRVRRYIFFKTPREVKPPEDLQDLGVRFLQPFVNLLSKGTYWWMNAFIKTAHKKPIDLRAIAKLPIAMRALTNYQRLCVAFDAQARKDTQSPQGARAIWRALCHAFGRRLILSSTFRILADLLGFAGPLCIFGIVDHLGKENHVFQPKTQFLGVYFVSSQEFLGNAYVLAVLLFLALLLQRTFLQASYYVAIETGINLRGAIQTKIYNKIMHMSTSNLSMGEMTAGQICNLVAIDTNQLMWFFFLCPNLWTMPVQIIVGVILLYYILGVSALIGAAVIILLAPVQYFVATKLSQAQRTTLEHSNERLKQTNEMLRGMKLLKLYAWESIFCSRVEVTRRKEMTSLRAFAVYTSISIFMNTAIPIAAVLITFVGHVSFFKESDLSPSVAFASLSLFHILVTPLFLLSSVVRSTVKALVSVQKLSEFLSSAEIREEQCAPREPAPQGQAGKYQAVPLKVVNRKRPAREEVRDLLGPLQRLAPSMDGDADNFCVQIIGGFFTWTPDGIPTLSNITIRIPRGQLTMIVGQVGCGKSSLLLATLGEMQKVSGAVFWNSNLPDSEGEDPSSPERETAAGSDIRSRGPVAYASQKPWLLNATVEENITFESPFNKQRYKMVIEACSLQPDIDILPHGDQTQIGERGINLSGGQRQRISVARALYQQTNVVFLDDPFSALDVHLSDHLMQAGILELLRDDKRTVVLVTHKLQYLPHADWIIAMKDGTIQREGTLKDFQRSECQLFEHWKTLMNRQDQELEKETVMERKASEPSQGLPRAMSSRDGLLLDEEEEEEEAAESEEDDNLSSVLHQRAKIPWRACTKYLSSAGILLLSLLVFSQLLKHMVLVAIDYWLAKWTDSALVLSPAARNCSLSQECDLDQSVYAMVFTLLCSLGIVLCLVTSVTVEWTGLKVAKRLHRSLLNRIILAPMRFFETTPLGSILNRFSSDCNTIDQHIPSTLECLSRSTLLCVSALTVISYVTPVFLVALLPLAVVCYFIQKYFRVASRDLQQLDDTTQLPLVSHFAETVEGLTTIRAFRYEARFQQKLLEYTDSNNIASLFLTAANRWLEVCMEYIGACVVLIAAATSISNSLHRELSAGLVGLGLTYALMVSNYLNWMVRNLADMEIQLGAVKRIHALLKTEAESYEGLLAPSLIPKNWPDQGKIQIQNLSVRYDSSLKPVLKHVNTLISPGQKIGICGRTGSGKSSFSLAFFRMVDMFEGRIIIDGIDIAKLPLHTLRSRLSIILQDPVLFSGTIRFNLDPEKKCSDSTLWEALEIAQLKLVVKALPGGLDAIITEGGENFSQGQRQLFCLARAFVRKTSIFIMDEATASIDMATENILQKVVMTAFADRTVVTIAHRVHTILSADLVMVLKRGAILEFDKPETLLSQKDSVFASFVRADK
Chain of rat SUR2A (Q63563 whole entry): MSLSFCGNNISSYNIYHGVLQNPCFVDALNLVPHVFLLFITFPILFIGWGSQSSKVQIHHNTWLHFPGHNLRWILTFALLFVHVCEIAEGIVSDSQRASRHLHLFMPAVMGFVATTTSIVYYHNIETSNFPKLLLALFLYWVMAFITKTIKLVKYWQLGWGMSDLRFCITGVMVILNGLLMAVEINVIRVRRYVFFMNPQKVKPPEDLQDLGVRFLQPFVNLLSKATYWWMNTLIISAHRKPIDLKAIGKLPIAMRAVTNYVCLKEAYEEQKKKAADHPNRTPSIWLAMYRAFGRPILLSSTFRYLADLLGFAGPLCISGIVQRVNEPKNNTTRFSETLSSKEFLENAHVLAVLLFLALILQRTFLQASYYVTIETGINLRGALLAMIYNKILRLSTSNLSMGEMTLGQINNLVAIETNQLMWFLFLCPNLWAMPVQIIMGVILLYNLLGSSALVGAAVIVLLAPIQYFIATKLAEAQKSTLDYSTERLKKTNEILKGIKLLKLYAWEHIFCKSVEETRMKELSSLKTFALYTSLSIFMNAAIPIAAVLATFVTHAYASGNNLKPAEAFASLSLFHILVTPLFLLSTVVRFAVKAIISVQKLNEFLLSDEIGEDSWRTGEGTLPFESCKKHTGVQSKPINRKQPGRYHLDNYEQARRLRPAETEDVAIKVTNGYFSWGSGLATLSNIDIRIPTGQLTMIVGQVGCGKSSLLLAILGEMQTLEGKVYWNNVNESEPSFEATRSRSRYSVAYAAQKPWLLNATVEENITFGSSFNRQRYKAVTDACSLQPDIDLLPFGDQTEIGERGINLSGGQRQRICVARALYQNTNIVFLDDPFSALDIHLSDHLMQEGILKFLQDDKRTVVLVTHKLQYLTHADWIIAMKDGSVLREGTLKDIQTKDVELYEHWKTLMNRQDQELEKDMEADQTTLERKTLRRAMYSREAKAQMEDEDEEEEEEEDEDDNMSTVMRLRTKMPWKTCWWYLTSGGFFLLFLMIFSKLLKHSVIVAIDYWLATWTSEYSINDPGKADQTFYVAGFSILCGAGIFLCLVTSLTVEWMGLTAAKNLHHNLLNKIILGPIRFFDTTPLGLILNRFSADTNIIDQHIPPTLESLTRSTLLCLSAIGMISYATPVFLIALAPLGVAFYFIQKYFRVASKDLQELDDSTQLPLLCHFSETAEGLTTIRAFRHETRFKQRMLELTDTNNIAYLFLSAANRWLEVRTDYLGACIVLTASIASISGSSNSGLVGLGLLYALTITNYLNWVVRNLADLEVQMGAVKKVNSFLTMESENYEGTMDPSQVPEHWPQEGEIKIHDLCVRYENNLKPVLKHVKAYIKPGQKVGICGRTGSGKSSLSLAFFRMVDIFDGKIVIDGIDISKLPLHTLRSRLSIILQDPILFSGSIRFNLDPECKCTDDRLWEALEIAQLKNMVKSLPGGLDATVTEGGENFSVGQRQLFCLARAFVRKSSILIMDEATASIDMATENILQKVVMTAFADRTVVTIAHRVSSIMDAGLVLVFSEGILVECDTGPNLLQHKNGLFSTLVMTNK

Row | Compound | Ki (hamster SUR1) | pKi (rat SUR2A) | pKi (rat SUR2A; [1]) | Affinity to SUR 1 (hamster SUR1)
1 | N#CCCNC(=NS(=O)(=O)c1ccc(Cl)cc1)N1CC(c2ccccc2)C(c2ccc(Cl)cc2)=N1 (stereo not shown) [4-Chloro-N-[[3-(4-chloro-phenyl)-4-phenyl-4,5-dihydro-pyrazol-1-yl]-(2-cyano-ethylamino)-methylene]-benzene sulfonamide] | 0.2 µM | 5.9 | – | –
2 | N#Cc1cc(-c2ccc(Br)cc2)n(-c2ccc(Cl)cc2Cl)n1 [5-(4-Bromo-phenyl)-1-(2,4-dichloro-phenyl)-1H-pyrazole-3-carbonitrile] | 100 µM | 5.4 | – | –
3 | CCCCC(C)(O)c1nc(-c2ccc(Cl)cc2Cl)n(-c2ccc(Cl)cc2)c1C (stereo not shown) [2-[1-(4-Chloro-phenyl)-2-(2,4-dichloro-phenyl)-5-methyl-1H-imidazol-4-yl]-hexan-2-ol] | 1.58 µM | 5.3 | – | –
4 | O=C(NN1CCCCC1)c1cn(-c2ccc(C(F)(F)F)cc2)c(-c2ccc(Cl)cc2Cl)n1 [2-(2,4-Dichloro-phenyl)-1-(4-trifluoromethyl-phenyl)-1H-imidazole-4-carboxylic acid piperidin-1-ylamide] | 2.51 µM | 5.3 | – | –
5 | O=C(NN1CCCCC1)c1nc(-c2ccc(Cl)cc2Cl)n(-c2ccc(Br)cc2)c1Cl [1-(4-Bromo-phenyl)-5-chloro-2-(2,4-dichloro-phenyl)-1H-imidazole-4-carboxylic acid piperidin-1-ylamide] | 3.98 µM | 5.5 | – | –
6 | CN/C(=N\S(=O)(=O)N1CCCCCC1)N1CC(c2ccccc2)C(c2ccc(Cl)cc2)=N1 (stereo not shown) [Azepane-1-sulfonic acid [3-(4-chloro-phenyl)-4-phenyl-4,5-dihydro-pyrazol-1-yl]-methylamino-methyleneamide] | 25.1 µM | 4.9 | – | –
7 | CCCCCc1nc(-c2ccc(Cl)cc2Cl)n(-c2ccc(Cl)cc2)c1C [1-(4-Chloro-phenyl)-2-(2,4-dichloro-phenyl)-5-methyl-4-pentyl-1H-imidazole] | 1.58 µM | – | 5.3 | –
8 | O=C(NN1CCCCC1)c1cn(-c2ccc(C(F)(F)F)cc2)c(-c2ccccc2Cl)n1 [2-(2-Chloro-phenyl)-1-(4-trifluoromethyl-phenyl)-1H-imidazole-4-carboxylic acid piperidin-1-ylamide] | 1 µM | 5.7 | – | –
9 | CCN(CC)S(=O)(=O)N=C(SC)N1CC(c2ccccc2)C(c2ccc(Cl)cc2)=N1 (stereo not shown) [N,N-Diethylamino-1-sulfonic acid [3-(4-chloro-phenyl)-4-phenyl-4,5-dihydro-pyrazol-1-yl]-methylsulfanyl-methyleneamide] | 100 µM | 4.7 | – | –
10 | CCN(CC)S(=O)(=O)N=C(NC)N1CC(O)(c2ccccc2)C(c2ccc(Cl)cc2)=N1 (stereo not shown) [N,N-Diethylamino-1-sulfonic acid [3-(4-chloro-phenyl)-4-hydroxy-4-phenyl-4,5-dihydro-pyrazol-1-yl]-methylamino-methyleneamide] | 100 µM | 5.9 | – | –
11 | Cc1c(C(=O)NC2CCC(O)CC2)nc(-c2ccc(Cl)cc2Cl)n1-c1ccc(Cl)cc1 (stereo not shown) [1-(4-Chloro-phenyl)-2-(2,4-dichloro-phenyl)-5-methyl-1H-imidazole-4-carboxylic acid (4-hydroxy-cyclo-hexyl)-amide] | 100 µM | 5.0 | – | –
12 | O=S(=O)(N=C(NCC1CC1)N1CC(c2ccccc2)C(c2ccc(Cl)cc2)=N1)N1CCOCC1 (stereo not shown) | 1 µM | 5.7 | – | –
13 | O=S(=O)(N=C(NC1CCNCC1)N1CC(c2ccccc2)C(c2ccc(Cl)cc2)=N1)c1ccc(Cl)cc1 (stereo not shown) [4-Chloro-N-[[3-(4-chloro-phenyl)-4-phenyl-4,5-dihydro-pyrazol-1-yl]-(piperidin-4-ylamino)-methylene]-benzenesulfonamide] | 31.6 µM | 4.6 | – | –
14 | CS(=O)(=O)C(=C1CN(C(c2ccc(Cl)cc2)c2ccc(Cl)cc2)C1)c1cc(F)cc(F)c1 [1-[Bis-(4-chloro-phenyl)-methyl]-3-[(3,5-difluoro-phenyl)-methanesulfonyl-methylene]-azetidine, reference compound] | 5.01 µM | 5.1 | – | –
15 | O=S(=O)(N=C(NCCF)N1CC(c2ccccc2)C(c2ccc(Cl)cc2)=N1)c1ccc(Cl)cc1 (stereo not shown) [drawing 46] | – | 5.0 | – | 4.6
16 | O=C(NN1CCCCC1)c1nc(-c2ccc(Cl)cc2Cl)n(-c2ccc(Cl)cc2)n1 [1-(4-Chloro-phenyl)-5-(2,4-dichloro-phenyl)-1H-[1,2,4]triazole-3-carboxylic acid piperidin-1-yl-amide] | 10 µM | 5.0 | – | –
17 | Cn1c(C(=O)NC2CCCCC2)nc(-c2ccc(Cl)cc2Cl)c1-c1ccc(Cl)cc1 | 100 µM | – | 4.9 | –
18 | CN(C)S(=O)(=O)N=C(NCCF)N1CC(c2ccccc2)C(c2ccc(Cl)cc2)=N1 (stereo not shown) [N,N-Dimethylamino-1-sulfonic acid [3-(4-chloro-phenyl)-4-phenyl-4,5-dihydro-pyrazol-1-yl]-(2-fluoro-ethylamino)-methyleneamide] | 50.1 µM | 4.0 | – | –
19 | CNC(=NS(=O)(=O)c1ccc(Cl)cc1)N1CC(c2cccnc2)C(c2ccc(Cl)cc2)=N1 (stereo not shown) | 2.51 µM | 5.4 | – | –
20 | NC(=O)C1CCN(C(=NS(=O)(=O)c2ccc(Cl)cc2)N2CC(c3ccccc3)C(c3ccc(Cl)cc3)=N2)CC1 (stereo not shown) [1-{(4-Chloro-benzene-sulfonylimino)-[3-(4-chloro-phenyl)-4-phenyl-4,5-dihydro-pyrazol-1-yl]-methyl}-piperidine-4-carboxylic acid amide] | 3.16 µM | 5.2 | – | –
21 | O=C(NN1CCCCC1)C1=NN(c2ccc(Cl)cc2)C(c2ccccc2)C1 (stereo not shown) [1-(4-Chloro-phenyl)-5-phenyl-4,5-dihydro-1H-pyrazole-3-carboxylic acid piperidin-1-ylamide] | 100 µM | 5.1 | – | –
22 | CCCCCc1nc(C(=O)NC23CC4CC(CC(C4)C2)C3)sc1-c1ccccc1 [N-Adamantyl-4-pentyl-5-phenyl-thiazole-2-carboxamide] | 100 µM | – | 4.0 | –
23 | CON/C(=N\S(=O)(=O)c1ccc(Cl)cc1)N1C[C@H](c2cccc(F)c2)C(c2ccc(Cl)cc2)=N1 [4-Chloro-N-{[3-(4-chloro-phenyl)-4-(3-fluoro-phenyl)-4,5-dihydro-pyrazol-1-yl]-methoxyamino-methylene}-benzenesulfonamide] | 2.51 µM | 6.1 | – | –
24 | O=C(NN1CCCCC1)c1nc(-c2ccc(Cl)cc2Cl)c(-c2ccc(Cl)cc2)s1 [5-(4-Chloro-phenyl)-4-(2,4-dichloro-phenyl)-thiazole-2-carboxylic acid piperidin-1-ylamide] | 2 µM | 5.5 | – | –
25 | CS(=O)(=O)c1c(C(=O)NN2CCCCC2)nc(-c2ccc(Cl)cc2Cl)n1-c1ccc(Cl)cc1 [1-(4-Chloro-phenyl)-2-(2,4-dichloro-phenyl)-5-methanesulfonyl-1H-imidazole-4-carboxylic acid piperidin-1-ylamide] | 100 µM | 5.0 | – | –
26 | CCNCCN/C(=N\S(=O)(=O)c1ccc(Cl)cc1)N1CC(c2ccccc2)C(c2ccc(Cl)cc2)=N1 (stereo not shown) [4-Chloro-N-[[3-(4-chloro-phenyl)-4-phenyl-4,5-dihydro-pyrazol-1-yl]-(2-ethylamino-ethylamino)-methylene]-Benzenesulfonamide] | 7.94 µM | 5.3 | – | –
